We go through four molecules from patent US7763732B2, “Indole derivatives” (N.V. Organon, priority 2005, dated 2010).

Molecules are shown by their SMILES.

This experiment deals with mice. The experiment is described as follows: Formalin paw test in mice. The settings on record: Mus musculus, intravenous, 5 min before 5% formalin s.c. into hind paw, Phase 2 = 20-30 min after formalin, read-out: ED50, inhibition of nociceptive behaviour of Phase 2. Format: in vivo. The procedure:
Formalin Paw Test In Mice
Four-six groups of six mice were treated with vehicle and one of four to five doses of the test compound (typically between 0.03, 0.1, 3 and 10 μmol/kg), administered intravenously into the tail vein (vehicle: 10% Tween-80 in saline; injection volume 10 ml/kg). This injection was followed 5 minutes later by 20 μl of 5% formalin, which was administered sub-cutaneously to the dorsum of the left hind paw. Immediately after formalin administration the animal was placed in a test chamber and data acquisition, using a detection device (Automated Nociception Analyser (ANA); Department of Anesthesiology, University of California, San Diego), was started, independently for each chamber. The nociceptive behaviour was measured as the number of counts (licking, lifting, biting and flinching actions) detected within the two phases of nociception (Yaksh et al, 2001). The nociceptive behaviour between 0 and 5 min after formalin injection (Phase 1) and between 20 and 30 min after formalin injection (Phase 2) was recorded and number of counts for each mouse, compared to the mean number of counts for the vehicle treated animals, was calculated. Once values for each mouse were obtained, the mean and s.e.m. were calculated for each treatment group. The percent inhibition data were then used to calculate ED50 values for Phase 1 and Phase 2.
As for `O=C(NCCO)C1CCN(Cc2nc(-c3cn(CC4CCOCC4)c4c(Cl)cccc34)no2)CC1` [Example 19], the ED50 was less than 5 µmol/kg. As to `CN(CC(N)=O)Cc1nc(-c2cn(CC3CCOCC3)c3c(Cl)cccc23)no1` [Example 20, 7-Chloro-3-[(5-{[N-(carboxamido)methyl]-N-methylamino}methyl)-([1,2,4]oxadiazol-3-yl)]-1-(tetrahydropyran-4-yl)methyl-1H-indole], the ED50 is less than 5 µmol/kg. Consider `CCc1cccc2c(-c3nsc(CN4CCC(C(=O)NCCO)CC4)n3)cn(CC3CCOCC3)c12` [Example 10A, 7-Ethyl-3-[(5-{4-[(N-{2-hydroxy}ethyl)carboxamido]piperidin-1-yl}methyl)-(1,2,4]-thiadiazol-3-yl)-1-(tetrahydropyran-4-yl)methyl-1H-indole], for which the ED50 is less than 5 µmol/kg.

Turning to `CS(=O)(=O)N(CCO)Cc1nc(-c2cn(CC3CCOCC3)c3c(Cl)cccc23)ns1` [Example 15, 7-Chloro-3-({5-[(N-{2-hydroxy}ethyl)-(N-{methylsulfonyl})amino]methyl}-([1,2,4]-thiadiazol-3-yl))-1-(tetrahydropyran-4-yl)methyl-1H-indole], the ED50 is less than 5 µmol/kg.
